These results are taken from patent US20040043939A1, “Peptide-based gemini compounds” (SmithKline Beecham p.l.c., priority 1997, published 2004).

Numbered stars: 1 amine (or outer) side, 2 acyl side, 3 side chain; on linkers, the order of the positions; unused ones are H or OH. Bridge positions count the residues as written; N and C are the ends. Peptide text beside a SMILES is read from it. I, II: the chains in the order shown. * marks the point of attachment. NH(CH2)11CH3 = CCCCCCCCCCCCN*; CH2CH2 = C(C[*:2])[*:1]

Common to all, as to type: cell-based
The test system of one assay is HEK293 cells. Put plainly: Transfection of luciferase plasmid into HEK293 cells, luciferase activity assay. To be noted: for Efficiency in facilitating transfection of the luciferase plasmid: at concentrations above 150 ug/ml; for Luciferase activity, mean count at most effective (peak) concentration: luciferase control plasmid 6 ug, mean of 4 independent counts; for Concentration of peak transfection efficiency (most effective concentration): luciferase plasmid. Here is the method: All tissue culture reagents were obtained from Life Technologies Inc. HEK 293 cells were seeded at 2-3×10^5 cells per well in Nunc six-well culture plates, 24 hours prior to transfection. The cells were seeded in 2 mls Dulbeccos Modified Eagle medium containing Earles salts and supplemented with 10% v/v foetal bovine serum (=complete medium). The cells were grown at 37° C. in 5% CO2 in a humidified atmosphere. 6 ug DNA (“luciferase control plasmid” from Promega Corp.) were dissolved in 100 ul serum free medium (OPTI-MEMO). The peptide-based gemini compounds were made up at 1 mg/ml in tissue culture grade water and then diluted in OPTI-MEM® to the appropriate concentration to a final volume of 100 ul. The DNA and gemini solutions were mixed (to a total volume of 200 ul; final concentrations of 5, 25, 50, 100, 150, 200, 250 and 300 ug/ml) and left at room temperature for 15 minutes. The DNA/gemini mix was placed onto the cells in each well and left in contact for 18-20 hours. The cells were then washed twice with phophate buffered saline prior to 1 ml of fresh complete medium being added. Cells were incubated for a further 24 hours prior to lysis and luciferase activity assayed.
All luciferase activity assays were performed using the Canberra Packard (Berkshire, UK) Luclite kit according to the manufacturer's instructions with the exception that the cells in each well were resuspended in 1 ml lysis buffer and 100 ul aliquots mixed with 100 ul of the luciferase substrate. The reaction mix was left for a 15 minutes adaptation period in the dark before counting for 5 minutes in a Top Count scintillation counter. Luciferase activity is measured as counts per second (CPS) from the scintillation counter. Four independent counts were taken per well.
Control transfections were set up with no DNA, CaPO4, an anionic gemini compound (1) and the commercially available lipofection reagents LipofectAmine™ and Lipotaxi™ at the manufacturers recommended concentrations (10, 25, 50, 75, 125 ug/ml and 175, 250, 325, 400 and 500 ug/ml respectively).

The test system of assay [1] is CHO-K1 cells. Put plainly: Transfection of luciferase plasmid into CHO-K1 cells, luciferase reporter gene assay. The following applies: for Luciferase activity, mean count at most effective (peak) concentration: 5 ug luciferase plasmid, about 48 h post transfection; for Concentration of peak transfection efficiency (most effective concentration): luciferase plasmid. Here is the method: CHO-K1 cells (ATCC: CRL-9618) were seeded into T25-culture flasks (Corning-Costar Buckinghamshire, UK), at 7×10^5 cells per flask, 24 hours prior to transfection. The CHO-K1 cells were seeded in 5 ml MEM alpha medium with ribonucleosides and deoxyribonucleosides and supplemented with 1× L-glutamine and 10% v/v foetal bovine serum (complete medium). The cells were grown at 37° C. in 5% CO2 in a humidified atmosphere.
For transfection, 5 ug DNA (luciferase control plasmid) was incubated with the gemini compounds in water (final volume 400 μl). The peptide-based gemini compounds were made up at 1 mg ml^−1 in tissue culture grade water and then diluted to the appropriate concentration to a total volume of 200 ul. Following a 30 minute room temperature incubation, 2.6 ml OPTI-MEM® medium was added and the solution placed on the cells. Following an overnight incubation at 37° C., the transfection solution was replaced with complete medium and the cells incubated at 37° C. 24 hours post transfection the cells were detached from the flask and seeded into 96-well plates at a density of 0.5×10^5 cells per well and incubated for a further 24 hours at 37° C. Luciferase reporter gene assays were performed according to the manufacturers instructions (Roche Diagnostics, Mannheim, Germany) approximately 48 hours post transfection. The plates were left for a 15 minutes adaption period in the dark before counting for 60 seconds in a TopCount NXT counter (Canberra Packard). An average of eight wells were counted per transfection.
Control transfections were set up with no DNA, an anionic gemini compound and the commercially available reagent LipofectAmine PLUS™.
For orientation: In a reporter assay the amount or activity of a reporter protein is the signal.

Assay [2] concerns CHO-K1 cells. In words: Transfection of luciferase plasmid into CHO-K1 cells with gemini compounds in combination with supplements (DOPE, PLUS). Here is the method:
The transfection ability of the gemini compounds could be further enhanced by the addition of a neutral carrier, for example, dioleyl phosphatidylethanolamine (DOPE) (Farhood, H., et al (1985) Biochim. Biophys. Acta 1235 289) or a complexing reagent, for example, PLUS compound (Life Technologies Inc.). […] Transfection mediated by compound 55 with DOPE in a 2:1 ratio and the addition of 11.6 ul of PLUS compound lead to a mean count of 6.5×10^5 cps representing a 12-fold increase of luciferase activity in comparison to compound 55 alone. Incubation of the PLUS compound with the DNA and combination with compound 55 alone also lead to a 4-fold increase.

Setting [3] is: compound 55 with DOPE 2:1 plus 11.6 ul PLUS compound.

As for `CCCCCCCCCCCCCNC(=O)C(CO)NC(=O)C(CSCCSCC(NC(=O)C(N)CCCCNC(=O)C(N)CCCCN)C(=O)NC(CO)C(=O)NCCCCCCCCCCCC)NC(=O)C(N)CCCCNC(=O)C(N)CCCCN.Cl.Cl.Cl.Cl` (centres unmarked) [Compound 55], in the assay with HEK293 cells, the “Efficiency in facilitating transfection of the luciferase plasmid” value (“Efficiency in facilitating transfection” below) was “very efficient agents”; the “Luciferase activity, mean count at most effective (peak) concentration” value (“Luciferase activity … (peak) concentration” below) is “about 45,000 cps”; the “Concentration of peak transfection efficiency (most effective concentration)” value was 300 µg/mL. In addition, in the assay on CHO-K1 cells [1], the “Efficiency in facilitating transfection” value is recorded as “very efficient agents”; the “Luciferase activity … (peak) concentration” value is recorded as “about 2.4×10^5 cps”; the Concentration of peak transfection efficiency (most effective concentration) was 30 µM. Moreover, the “Increase of luciferase activity” value in the assay on CHO-K1 cells [2] (PLUS compound incubated with the DNA, combined with compound 55 alone (no DOPE)) was determined as 4 fold. The “Increase of luciferase activity” value with CHO-K1 cells [2] (compound 55 and DOPE at 2:1 ratio) is recorded as 9 fold. In the assay on CHO-K1 cells [2] (setting [3]), the “Increase of luciferase activity in comparison to compound 55 alone” value was determined as 12 fold and the “Luciferase activity, mean count” value is recorded as 6.5×10^5 cps.
On to `CCCCCCCCCCCCNC(=O)C(CO)NC(=O)C(CSCCSCC(NC(=O)C(CCCCNC(=O)C(N)CCCCN)NC(=O)C(N)CCCCN)C(=O)NC(CO)C(=O)NCCCCCCCCCCCC)NC(=O)C(CCCCNC(=O)C(N)CCCCN)NC(=O)C(N)CCCCN.Cl.Cl.Cl.Cl.Cl.Cl.Cl.Cl` (centres unmarked) [Compound 56] (I: H-KK(Lys)CS-{NH(CH2)11CH3} / II: H-KK(Lys)CS-{NH(CH2)11CH3}; linker I:3-II:3 via CH2CH2; configuration not given here), for which, in the assay with HEK293 cells, the “Efficiency in facilitating transfection” value is “very efficient agents”; the “Luciferase activity … (peak) concentration” value is listed as “about 50,000 cps”; the “Concentration of peak transfection efficiency (most effective concentration)” value stood at 200 µg/mL. Also, in the assay with CHO-K1 cells [1], the “Efficiency in facilitating transfection” value is given as “very efficient agents”; the “Luciferase activity … (peak) concentration” value is “about 1.9×10^5 cps”; the Concentration of peak transfection efficiency (most effective concentration) was 40 µM.
Turning to CaPO4 [reference compound], the “Luciferase activity count, control transfection” value with HEK293 cells (CaPO4 transfection) is listed as “about 2,000 cps”.
